The values below come from patent publication US7097865B2, “Inhibition of CYP450 1A2, 2A6, 2C9, 2C19, 2D6, 2E1, and 3A4 in cryopreserved human hepatocytes by a Tripterygium Wilfordii Hook. F. extract” (Novemed Group Limited, priority 2002, dated 2006).

As usually defined, the inhibition is the relative decrease from the control value, in per cent. A higher inhibition goes with strong suppression.

One series has as its target CYP1A2 (Homo sapiens, UniProt P05177). Put plainly: in vitro. Particulars: both, hepatocytes. An excerpt: CYP1A2 activity was characterized by the formation of acetaminophen from phenacetin.
Series [1] deals with T1, CYP2C9 (Homo sapiens, UniProt P11712). The following applies: Sulfaphenazole 10 μM.
T1 sequence (P11712 whole entry): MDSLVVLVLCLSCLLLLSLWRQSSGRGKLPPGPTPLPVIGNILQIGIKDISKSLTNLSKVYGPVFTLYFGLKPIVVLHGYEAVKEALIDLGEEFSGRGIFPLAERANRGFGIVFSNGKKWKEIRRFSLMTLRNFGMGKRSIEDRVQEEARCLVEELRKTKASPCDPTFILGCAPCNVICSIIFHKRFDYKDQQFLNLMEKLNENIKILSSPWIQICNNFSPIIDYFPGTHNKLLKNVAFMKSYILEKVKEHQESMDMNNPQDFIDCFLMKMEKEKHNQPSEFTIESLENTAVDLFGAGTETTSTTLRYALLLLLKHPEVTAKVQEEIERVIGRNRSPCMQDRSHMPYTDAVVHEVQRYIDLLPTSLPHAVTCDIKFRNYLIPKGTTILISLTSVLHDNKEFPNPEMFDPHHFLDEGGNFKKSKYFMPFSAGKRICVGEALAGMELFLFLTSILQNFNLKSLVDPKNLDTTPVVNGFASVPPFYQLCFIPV
The target of series [2] is T1, CYP2C9. Put plainly: in vitro. Particulars: both, hepatocytes.
Another series deals with CYP2C19 (Homo sapiens, UniProt P33261). Put plainly: in vitro. Particulars: both, pooled cryopreserved human hepatocytes in suspension, probe S-mephenytoin (20 μM).
Chain of CYP2C19 (P33261 whole entry): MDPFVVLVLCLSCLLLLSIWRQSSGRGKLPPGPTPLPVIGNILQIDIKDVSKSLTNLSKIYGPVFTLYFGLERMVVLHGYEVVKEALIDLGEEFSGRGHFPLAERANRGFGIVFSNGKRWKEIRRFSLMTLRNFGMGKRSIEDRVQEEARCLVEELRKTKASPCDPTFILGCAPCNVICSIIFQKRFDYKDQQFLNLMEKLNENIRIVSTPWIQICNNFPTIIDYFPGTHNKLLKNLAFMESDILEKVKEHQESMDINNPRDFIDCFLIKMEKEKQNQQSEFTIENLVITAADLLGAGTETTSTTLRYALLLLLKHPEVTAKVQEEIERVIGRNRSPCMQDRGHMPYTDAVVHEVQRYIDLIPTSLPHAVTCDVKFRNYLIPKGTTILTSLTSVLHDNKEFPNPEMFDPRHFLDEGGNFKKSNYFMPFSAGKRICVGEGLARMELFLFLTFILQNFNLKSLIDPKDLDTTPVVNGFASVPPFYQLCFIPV
The target of the next series is CYP2A6 (Homo sapiens, UniProt P11509). Particulars: Tranylcypromine 3 μM.
Chain of CYP2A6 (P11509 whole entry): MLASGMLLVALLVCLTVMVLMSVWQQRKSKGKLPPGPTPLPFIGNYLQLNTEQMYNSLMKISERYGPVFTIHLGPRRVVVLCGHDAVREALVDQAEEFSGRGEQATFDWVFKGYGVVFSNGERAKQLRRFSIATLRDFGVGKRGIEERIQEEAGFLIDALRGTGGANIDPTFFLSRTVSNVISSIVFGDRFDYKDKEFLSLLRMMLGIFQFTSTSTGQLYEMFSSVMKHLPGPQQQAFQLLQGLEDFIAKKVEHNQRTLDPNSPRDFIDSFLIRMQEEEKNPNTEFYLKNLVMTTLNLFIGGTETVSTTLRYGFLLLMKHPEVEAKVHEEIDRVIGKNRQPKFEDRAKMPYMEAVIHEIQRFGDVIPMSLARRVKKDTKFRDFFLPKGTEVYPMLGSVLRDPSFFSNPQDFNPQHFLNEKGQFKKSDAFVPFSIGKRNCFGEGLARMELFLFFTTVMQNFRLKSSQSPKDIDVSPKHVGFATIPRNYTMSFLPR

Chain of CYP1A2 (P05177 whole entry): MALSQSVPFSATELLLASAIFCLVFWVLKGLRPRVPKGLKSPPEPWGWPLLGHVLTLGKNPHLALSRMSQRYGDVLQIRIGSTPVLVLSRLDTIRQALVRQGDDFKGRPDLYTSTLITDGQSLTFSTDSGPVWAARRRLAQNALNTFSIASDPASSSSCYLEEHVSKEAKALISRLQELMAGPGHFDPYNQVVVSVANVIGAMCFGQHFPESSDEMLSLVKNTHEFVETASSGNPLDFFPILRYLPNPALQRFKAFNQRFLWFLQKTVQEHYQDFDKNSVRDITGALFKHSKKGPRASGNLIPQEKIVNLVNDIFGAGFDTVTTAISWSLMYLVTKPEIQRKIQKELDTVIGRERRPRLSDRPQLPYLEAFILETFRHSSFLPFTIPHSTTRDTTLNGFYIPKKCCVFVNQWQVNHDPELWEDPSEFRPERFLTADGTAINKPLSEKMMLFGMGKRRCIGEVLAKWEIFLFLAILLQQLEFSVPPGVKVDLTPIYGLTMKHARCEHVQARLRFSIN

On CYP1A2, `Cc1nc2c([nH]1)c(=O)n(C)c(=O)n2Cc1ccco1` [Furafylline, furafylline] registered an activity at 60 min, 1 μM of 27.9% and an inhibition at 60 min, 1 μM of 72.1%.

Take `Nc1ccc(S(=O)(=O)Nc2ccnn2-c2ccccc2)cc1` [Sulfaphenazole, sulfaphenazole]: the “CYP2C9 % Inhibition” value on CYP2C9 [1] was 95.0%. In addition, the activity at 60 min, 10 μM on CYP2C9 [2] was 5.02%.

On CYP2C19, `COc1ccc2[nH]c([S+]([O-])Cc3ncc(C)c(OC)c3C)nc2c1` (centres unmarked) [Omeprazole, omeprazole] had an activity at 60 min, 25 μM of 73.6% and an inhibition at 60 min, 25 μM of 26.4%.

`N[C@@H]1C[C@H]1c1ccccc1` (racemic) [Tranylcypromine, tranylcypromine]: at CYP2A6, the “CYP2A6 % Inhibition” value is 64.1% and the “CYP2A6 activity % VC” value is given as 35.9%.
